Assays:
IGROV1 knockdown cells = experiment: Growth inhibition in IGROV1 FRα knockdown cells; type: cell-based, human; settings: up to 1000 nM drug
[1] = system: IGROV1 human EOC xenografts; experiment: In vivo efficacy trial with IGROV1 EOC xenografts in SCID mice
IGROV1 EOC cells = settings: colony-forming assay; cited from earlier work
[2] = system: R1–11-PCFT4 HeLa cells expressing PCFT; experiment: Cell proliferation assay, PCFT-expressing HeLa subline R1–11-PCFT4
[3] = system: R1–11-FR2 HeLa cells expressing FRα; experiment: Cell proliferation assay, FRα-expressing HeLa subline R1–11-FR2

For `Nc1nc2[nH]c(CCCCc3ccc(C(=O)N[C@@H](CCC(=O)O)C(=O)O)cc3)cc2c(=O)[nH]1` [Compound 2], the “growth inhibition upon FRα knockdown” value (IGROV1 knockdown cells) was “complete loss of growth inhibition”.

For `Nc1nc2[nH]c(CCCc3ccc(C(=O)N[C@@H](CCC(=O)O)C(=O)O)s3)cc2c(=O)[nH]1` [Compound 1], the tumor burden range ([1]; day 60, folate-deficient diet, iv, 11 Q4dX4 95 (mg/kg)/inj, 1 Q4dX3 32 (mg/kg)/inj) was 0 to 196 mg, the “acute or long-term toxicities” value ([1]; equitoxic dose levels, SCID mice) was “no acute or long-term toxicities other than completely reversible loss of weight” and the “antitumor activity on standard (high folate) diet” value ([1]; standard folate-replete diet) was “ablated”. The “weight loss or adverse symptoms on standard (high folate) diet” value ([1]; standard folate-replete diet) was “No weight losses or other adverse symptoms were observed” and the cell killing (IGROV1 EOC cells) was “greater than 99%”.

With `Nc1nc2[nH]c(CCCc3ccc(C(=O)N[C@@H](CCC(=O)O)C(=O)O)c(F)c3)cc2c(=O)[nH]1` [Compound 9, (4-(3-(2-Amino-4-oxo-4,7-dihydro-3H-pyrrolo[2,3-d]pyrimidin-6-yl)propyl)-2-fluorobenzoyl)-L-glutamic Acid] the “fold IC50 below that for compound 1” value ([2]; R1–11-PCFT cells) was 10 fold and the “fold IC50 below that for compound 1” value ([3]; R1–11-FR2 cells) was 6 fold.

For `Nc1nc2[nH]c(CCCCc3cnc(C(=O)N[C@@H](CCC(=O)O)C(=O)O)c(F)c3)cc2c(=O)[nH]1` [Compound 10, (5-(4-(2-Amino-4-oxo-4,7-dihydro-3H-pyrrolo[2,3-d]pyrimidin-6-yl)butyl)-3-fluoropicolinoyl)-L-glutamic Acid], the “growth inhibition upon FRα knockdown” value (IGROV1 knockdown cells) was “complete loss of growth inhibition”.

With `Nc1nc2[nH]c(CCCCc3csc(C(=O)N[C@@H](CCC(=O)O)C(=O)O)c3)cc2c(=O)[nH]1` [Compound 5] the “growth inhibition upon FRα knockdown” value (IGROV1 knockdown cells) was “complete loss of growth inhibition”.

With `Nc1nc2[nH]c(CCCCc3ccc(C(=O)N[C@@H](CCC(=O)O)C(=O)O)c(F)c3)cc2c(=O)[nH]1` [Compound 8, (4-(4-(2-Amino-4-oxo-4,7-dihydro-3H-pyrrolo[2,3-d]pyrimidin-6-yl)butyl)-2-fluorobenzoyl)-L-glutamic Acid] the “growth inhibition upon FRα knockdown” value (IGROV1 knockdown cells) was “complete loss of growth inhibition”.

With `Nc1nc2[nH]c(CCCc3csc(C(=O)N[C@@H](CCC(=O)O)C(=O)O)c3F)cc2c(=O)[nH]1` [Compound 12, (4-(3-(2-Amino-4-oxo-4,7-dihydro-3H-pyrrolo[2,3-d]pyrimidin-6-yl)propyl)-3-fluorothiophene-2-carbonyl)-L-glutamic Acid] the “selectivity for PCFT versus RFC (IC50 R1–11-RFC2/IC50 R1–11-PCFT)” value ([2]; HeLa sublines) was ~ 3 and the “fold reduced IC50 of fluorinated versus nonfluorinated counterpart” value ([3]; R1–11-FR2 HeLa cells) was 2–3 fold.

From PMC6097718 (Journal of medicinal chemistry, 2018)
